# Source: ChEMBL document CHEMBL1123692, “Dopamine autoreceptor agonists: resolution and pharmacological activity of 2,6-diaminotetrahydrobenzothiazole and an aminothiazole analogue of apomorphine” (J Med Chem, 1987)
# Tests used:
# [1] = tested on: Rattus norvegicus; experiment: Percent difference of L-DOPA accumulation when compared to saline at a dose of 10 mg/kg; assay type: functional
# [2] = tested on: Rattus norvegicus; experiment: Utilization of DA/g by total brain without cerebellum following alpha-MT (250 mg/kg) at a dose of 10 mg/kg; assay type: functional
# [3] = tested on: Rattus norvegicus; experiment: Percent difference of DA utilization when compared to saline at a dose of 10 mg/kg; assay type: functional
# [4] = tested on: Rattus norvegicus; experiment: Accumulation of nmol of L-DOPA/g of tissue weight corpus striatum elicited by injection of GBL and NSD at a dose of 10 mg/kg; assay type: functional
# [5] = tested on: Rattus norvegicus; experiment: Percent difference of L-DOPA accumulation when compared to saline at a dose of 1.0 mg/kg
SMILES,Difference ([1]; 10 mg/kg),DA utilization ([2]; 10 mg/kg),Difference ([3]; 10 mg/kg),Accumulation ([4]; 10 mg/kg),DA utilization [2],Difference [5],Difference [3],Accumulation [4],Difference [1]
"CN1CCc2cccc3c2C1Cc1sc(N)nc1-3.Cl.Cl (single isomer, unassigned; (+))",1%,2441,-12%,24.4,,,,,
CCCN[C@@H]1CCc2nc(N)sc2C1.Cl.Cl,,,,,5104,-21%,84%,19,
CN1CCc2cccc3c2[C@H]1Cc1ccc(O)c(O)c1-3 [APOMORPHINE],,,,,4008,,44%,8.9,-63%
"CN1CCc2cccc3c2C1Cc1sc(N)nc1-3.Cl.Cl (single isomer, unassigned; (-))",-16%,3917,41%,20.1,,,,,
Cl.Cl.Nc1nc2c(s1)C[C@H](N)CC2,,,,,2441,,-12%,,
CCCN1CCCC2Cc3nc(N)sc3CC21 (stereo unspecified),,,,,4863,,75%,9.1,-62%
CCCN[C@H]1CCc2nc(N)sc2C1.Cl.Cl,,,,,6417,-53%,,11.3,
Cl.Cl.Nc1nc2c(s1)C[C@@H](N)CC2,,,,,2317,,-17%,,
CN1CCc2cccc3c2C1Cc1sc(N)nc1-3 (racemic),,,,,3721,,34%,14.9,-38%
